As a reminder, the Kd is the equilibrium constant for the complex coming apart. A high value points to weaker binding. One may read the MIC as the least concentration at which growth counts as inhibited.

≈ marks a conversion by molar mass, not a printed value. Where “and” joins values, the source holds several entries; their conditions need not be identical. Equal values may be shown once.

These results are taken from PMC9334274, “A unique class of Zn^2+-binding serine-based PBPs underlies cephalosporin resistance and sporogenesis in Clostridioides difficile” (Nature Communications, 2022).

One experiment deals with PBP2. The note with it: 2 mM EDTA.
The target in a further experiment is PBP2WT (Clostridioides difficile, UniProt A0A9R0CDX1). The experiment is described as follows: biochemical. The class given is binding.
A further experiment addresses T1, PBP2D515N (Clostridioides difficile, UniProt A0A9R0CDX1, D515N).
T1 sequence (A0A9R0CDX1 36-962 D515N): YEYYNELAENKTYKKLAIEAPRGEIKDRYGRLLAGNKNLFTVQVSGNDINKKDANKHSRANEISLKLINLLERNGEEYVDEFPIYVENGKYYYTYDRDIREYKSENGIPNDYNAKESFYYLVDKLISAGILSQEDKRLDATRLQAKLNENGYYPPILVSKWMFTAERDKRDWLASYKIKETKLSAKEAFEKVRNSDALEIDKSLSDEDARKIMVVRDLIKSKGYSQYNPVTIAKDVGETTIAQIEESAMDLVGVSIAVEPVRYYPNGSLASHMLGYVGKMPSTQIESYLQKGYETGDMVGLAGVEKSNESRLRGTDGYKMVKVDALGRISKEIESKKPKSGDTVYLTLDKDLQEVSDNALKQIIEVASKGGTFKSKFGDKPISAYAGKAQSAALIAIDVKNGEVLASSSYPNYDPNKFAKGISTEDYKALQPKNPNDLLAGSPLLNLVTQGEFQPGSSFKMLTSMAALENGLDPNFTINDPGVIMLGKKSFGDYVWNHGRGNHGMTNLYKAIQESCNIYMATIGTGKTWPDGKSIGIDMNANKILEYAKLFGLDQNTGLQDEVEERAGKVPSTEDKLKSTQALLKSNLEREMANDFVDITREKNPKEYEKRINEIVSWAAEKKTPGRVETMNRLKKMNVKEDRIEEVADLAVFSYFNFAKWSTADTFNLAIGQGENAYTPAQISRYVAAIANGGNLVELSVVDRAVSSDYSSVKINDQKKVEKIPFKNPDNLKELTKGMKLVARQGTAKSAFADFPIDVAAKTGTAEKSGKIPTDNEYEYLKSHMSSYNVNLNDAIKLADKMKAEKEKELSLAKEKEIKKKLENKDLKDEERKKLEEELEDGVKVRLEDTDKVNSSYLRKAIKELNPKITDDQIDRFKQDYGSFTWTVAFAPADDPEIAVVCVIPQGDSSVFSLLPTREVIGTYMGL
The experiment is described as follows: biochemical. The class given is binding.

The next experiment has as its system Ldt3. The class given is biochemical, Clostridioides difficile R20291. The note with it: 25 µM.
The test system of the next experiment is Ldt2. The experiment is described as follows: Nitrocefin inhibition assay, Ldt2. The settings on record: 25 µM; for Ldt2 % inhibiton: β-lactam at 25 uM, nitrocefin hydrolysis, two independent experiments, individual values. It counts as biochemical, Clostridioides difficile R20291. As to the method: Reactions were performed in a 96-well polystyrene plate with a final volume of 60 μL at 37 °C in 20 mM Tris pH 7, 200 mM NaCl. […] Protein was then added to the well for a final concentration of 1 µM and incubated for 15 min at 37 °C. 1 µL of nitrocefin (Millipore Sigma) was then added to each well for a final concentration of 20 µM, and reaction progress was monitored using a BioTek Cytation 5 plate reader (BioTek Instruments) at 488 nm and 37 °C for 1 h. Reaction rates were normalized to the control (no inhibitor) for % inhibition values. Assays were performed in duplicate and mean % inhibition values was calculated.

The subject of a further experiment is C. difficile PBP3. It counts as binding, Clostridioides difficile R20291. The settings on record: 25 µM.
Experiment [1] relates to C. difficile strain R20291. The experiment is described as follows: Minimum inhibitory concentration (MIC) determination. The note with it: for MIC: Clostridioides difficile, R20291, 24 h.
The next experiment relates to C. difficile. Further details: method as in PMID 29533126. The settings on record: cited from earlier work.

Turning to `O=C(O)CN(CCN(CC(=O)O)CC(=O)O)CC(=O)O` [EDTA], the PBP2 activity result with PBP2 is given as “not affected”.

In the case of `Cc1cc(C)n2c1C=C1C=CC(CCC(=O)Nc3ccc(OCC(=O)N[C@@H]4C(=O)N5[C@@H]4SC(C)(C)[C@@H]5C(=O)O)cc3)=[N+]1[B-]2(F)F` [bocillin], the Kd at PBP2WT came out at 2.95 ± 0.72 µM; at PBP2D515N, 16.7 ± 2.72 µM.

Regarding `C[C@@H](O)[C@H]1C(=O)N2C(C(=O)O)=C(S[C@@H]3CN[C@H](C(=O)N(C)C)C3)[C@H](C)[C@H]12` [meropenem], the Ldt3 % inhibiton in the experiment with Ldt3 is 25.5396% and 27.8512%. Also, the “inhibition of Ldt2 (in words)” value with Ldt2 is recorded as “best inhibitors of Ldt2”. Further, in the experiment on Ldt2 (listed as MEM), the Ldt2 % inhibiton was 88.3495% and 88.0368%. In addition, in the experiment with C. difficile PBP3, the PBP3 % inhibiton was 95.105% and 95.5466% and 97.2164%. In experiment [1], this molecule returned an MIC of 4 µg/mL (≈ 10.4 µM).

Take `CC1(C)S[C@@H]2[C@H](NC(=O)Cc3ccccc3)C(=O)N2[C@H]1C(=O)O` [penicillin G]: the Ldt3 % inhibiton with Ldt3 was 58.9928% and 66.7769%. In the experiment on Ldt2 (listed as EM), the Ldt2 % inhibiton was 2.091% and 5.675%. Also, the PBP3 % inhibiton with C. difficile PBP3 was 94.9098% and 94.1115% and 95.4645%. Moreover, in experiment [1], the “MIC (X)” value is listed as 1 and the MIC was determined as 1 µg/mL (≈ 2.99 µM).

Take `CCN1CCN(C(=O)N[C@@H](C(=O)N[C@@H]2C(=O)N3[C@@H]2SC(C)(C)[C@@H]3C(=O)O)c2ccccc2)C(=O)C1=O` [piperacillin]: the Ldt3 % inhibiton in the experiment on Ldt3 was 51.7086% and 57.3554%. Further, the “inhibition of Ldt2 (in words)” value in the experiment with Ldt2 is recorded as “best inhibitors of Ldt2”. For the same molecule, the Ldt2 % inhibiton in the experiment on Ldt2 (listed as PIP) is 57.879% and 59.7393%. Moreover, the PBP3 % inhibiton in the experiment on C. difficile PBP3 is 92.03% and 94.7239% and 96.6236%. In experiment [1], this molecule returned an MIC of 16 µg/mL (≈ 30.9 µM).

B1: calprotectin: a protein secreted by the immune system in response to intestinal inflammation; chelator of divalent cations such as Ca2+ and Zn2+ (protein, UniProt P05109 1-93; P06702 1-114, looked up)
Protein S100-A8: MLTELEKALNSIIDVYHKYSLIKGNFHAVYRDDLKKLLETECPQYIRKKGADVWFKELDINTDGAVNFQEFLILVIKMGVAAHKKSHEESHKE
Protein S100-A9: MTCKMSQLERNIETIINTFHQYSVKLGHPDTLNQGEFKELVRKDLQNFLKKENKNEKVIEHIMEDLDTNADKQLSFEEFIMLMARLTWASHEKMHEGDEGPGHHHKPGLGEGTP
For B1, the “C. difficile growth (in words)” value in the experiment on C. difficile is listed as “inhibits C. difficile growth”.
